Experimental data from publication PMC3070790 (Bioorganic & medicinal chemistry letters, 2011).
Entries after “also recorded” stand apart in the source; their conditions may differ. Like-named read-outs stand apart in the source and are kept apart here.

Key:
[1] = target: T1, light chain of BoNT serotype A (LC/A) (Clostridium botulinum, UniProt P0DPI1); format: biochemical
[2] = tested on: primary rat cerebellar neurons; format: cell-based
[3] = target: T1, light chain of BoNT serotype A (LC/A); conditions: cited from earlier work

T1 sequence (P0DPI1 2-448 limits assumed): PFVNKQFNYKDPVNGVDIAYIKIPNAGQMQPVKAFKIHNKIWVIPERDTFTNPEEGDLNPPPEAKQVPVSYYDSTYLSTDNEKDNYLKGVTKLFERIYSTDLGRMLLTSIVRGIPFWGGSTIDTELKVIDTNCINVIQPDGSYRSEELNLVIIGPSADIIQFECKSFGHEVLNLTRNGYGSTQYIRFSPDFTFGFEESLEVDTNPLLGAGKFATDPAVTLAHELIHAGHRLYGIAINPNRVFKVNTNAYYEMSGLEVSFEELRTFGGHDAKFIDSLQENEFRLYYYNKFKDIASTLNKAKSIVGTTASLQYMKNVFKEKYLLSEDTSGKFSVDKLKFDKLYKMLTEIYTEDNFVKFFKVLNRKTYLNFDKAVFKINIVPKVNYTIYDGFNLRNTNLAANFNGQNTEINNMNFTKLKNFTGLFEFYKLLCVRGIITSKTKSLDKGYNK

## C=C(C)[C@@H]1CC[C@]2(COC(=O)CCC(=O)O)CC[C@]3(C)[C@H](CC[C@@H]4[C@@]5(C)CC[C@H](O)C(C)(C)[C@@H]5CC[C@]43C)[C@@H]12 [Compound 7, 28-hemisuccinylbetulin]
[1]
  Ki: sub-micromolar
  mechanism of inhibition: competitive
[2]
  protection against BoNT/A (intracellular SNAP-25 cleavage): did not show any protection; also recorded: did not show inhibitory activity; also recorded: did not demonstrate protection

## C=C(C)[C@@H]1CC[C@]2(COC(=O)COc3cc(C(C)C)ccc3C)CC[C@]3(C)[C@H](CC[C@@H]4[C@@]5(C)CC[C@H](O)C(C)(C)[C@@H]5CC[C@]43C)[C@@H]12 [Compound 8, betulinyl 28-carboxymethoxycarvacrolate]
[1]
  fold less potent than 7 (Ki): about 16 fold
  mechanism of inhibition: competitive

## C=C(C)[C@@H]1CC[C@]2(C(=O)O)CC[C@]3(C)[C@H](CC[C@@H]4[C@@]5(C)CC[C@H](O)C(C)(C)[C@@H]5CC[C@]43C)[C@@H]12 [Compound 18, betulinic acid]
[1]
  fold less potent than 7 (Ki): ~18 fold
  mechanism of inhibition: competitive

## O=C(/C=C/c1ccc(O)c(O)c1)O[C@H](C(=O)O)[C@H](OC(=O)/C=C/c1ccc(O)c(O)c1)C(=O)O [D-chicoric acid]
[3]
  mechanism of inhibition: noncompetitive partial inhibition
